Measurements taken from patent publication EP0162695A1, “6-Oxygenated-1,3,,4,5-Tetrahydrobenz(cd)indol-4-amines” (SMITHKLINE BEECHAM CORPORATION, priority 1984, dated 1985).

Target: 5-HTl receptor
Assay: antagonism of the effect of serotonin in an in vitro dog basilar artery preparation
Type: biochemical
Text: Also, selective 5-HTl receptor antagonist activity of the compounds of formula (I) may be shown by the ability to antagonize the effect of serotonin in an in vitro dog basilar artery preparation, Peroutka et al, Brain Research 259:327-330 (1983).

Work on `COc1ccc2[nH]cc3c2c1CC(N)C3` (stereo not shown) [example 1, 6-methoxy-l,3,4,5-tetrahydrobenz[cd]indole-4-amine hemioxalate] yielded a Kb of 463 nM.
